This note sets out measurements from patent publication US9562017B2, “Hydrogen sulfate salt” (Array BioPharma Inc., priority 2005, dated 2017).

One data set in a line: BCS classification. The following applies: free base. It is filed as physicochemical. An excerpt:
BCS Class 4 compounds normally have low bioavailability due to both low dissolution rate and permeability, and the limitation of permeability on absorption means that such salts would not usually be expected exert a substantial impact on absorption (See for example: Dressman et al. (2001) Pharm Tech. July: 68).

A short description of data set [1]: Dissolution rate of the crystalline salt. The following applies: crystalline salt compared to the free base and other salts. It is filed as physicochemical.
Data set [2] is described as follows: Plasma levels of Compound 1 in fasted dogs after oral dispersion doses, salt versus free base. It is filed as in vivo, beagle dogs. The following applies: crystalline salt compared to the free base and other salts. The procedure:
Single doses of 150 mg were administered orally to fasted beagle dogs weighing 12-17 kg and about 2 to 6 years old on each of three dosing days. Each dosing day was 1 week apart.
All formulations were prepared extemporaneously just prior to dosing by adding 7.5 mL of the appropriate dispersing solution via a 10 mL disposable syringe, to vials containing 150 mg free base equivalents of the appropriate drug form, capping and vortex mixing for 30 seconds to form a dispersion.
The dispersion was removed from the vial using the disposable syringe and dosed to the animal via a gavage tube positioned into the stomach. The vials were rinsed twice by adding, for each of the two rinses, a separate 15 mL aliquot of water (total rinse volume=30 mL) via a 20 mL disposable syringe, capping, vortex mixing for 5 seconds, removing the wash solution from the vial using the disposable syringe and dosing to the animal via the gavage tube.
Dogs were fed about 400 g of Special Diet Services Laboratory Diet A each day and allowed water ad libitum. Whole blood (2 mL) in lithium heparin tubes were taken from the jugular vein immediately prior to dosing and at 0.5, 1, 2, 3, 4, 5, 6, 8, 12, 18, 24, 36 and 48 hours. The blood was centrifuged at 3000 rpm for 15 minutes and plasma was removed into plain blood tubes and the plasma stored at −20° C. until analysis. […]

Structures can show the parent of a compound that is named as a salt.

Regarding `Cn1cnc2c(F)c(Nc3ccc(Br)cc3Cl)c(C(=O)NOCCO)cc21` [Compound 1, 6-(4-bromo-2-chloro-phenylamino)-7-fluoro-3-methyl-3H-benzoimidazole-5-carboxylic acid (2-hydroxy-ethoxy)-amide], in “BCS classification”, the “BCS Class” value is “BCS Class 4”.

Take `Cn1cnc2c(F)c(Nc3ccc(Br)cc3Cl)c(C(=O)NOCCO)cc21` [hydrogen sulfate salt, 6-(4-bromo-2-chloro-phenylamino)-7-fluoro-3-methyl-3H-benzoimidazole-5-carboxylic acid (2-hydroxy-ethoxy)-amide hydrogen sulfate]: in data set [1], the dissolution rate entry is recorded as “particularly high”. In addition, the bioavailability entry in data set [2] is given as “particularly high”.
